These results are taken from patent US10526345B2, “Compounds as GPR119 agonists” (Mankind Pharma Ltd., priority 2016, dated 2020).

The experiment concerns the target T1, hGPR119 (Homo sapiens, UniProt Q8TDV5).
T1 construct: expressed in transfected cells; host or cells: CHO
T1 sequence (Q8TDV5 1-335): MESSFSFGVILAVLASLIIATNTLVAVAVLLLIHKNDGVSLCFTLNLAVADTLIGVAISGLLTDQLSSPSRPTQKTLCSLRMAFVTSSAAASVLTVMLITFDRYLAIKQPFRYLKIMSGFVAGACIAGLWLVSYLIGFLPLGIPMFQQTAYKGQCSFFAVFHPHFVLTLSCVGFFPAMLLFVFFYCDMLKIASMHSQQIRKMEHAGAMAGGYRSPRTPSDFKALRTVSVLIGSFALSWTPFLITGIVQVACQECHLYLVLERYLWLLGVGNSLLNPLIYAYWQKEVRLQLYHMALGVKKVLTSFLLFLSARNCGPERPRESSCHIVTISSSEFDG
Kind of experiment: In vitro cyclic AMP assay (Cisbio dynamic 2 HTRF kit) in CHO-hGPR119 cells. It counts as cell-based. As to conditions: cAMP; for activation at 1 µM: 1 h, read-out: Induction (% induction at 1 μM). The procedure: cAMP measurements were done using Cisbio dynamic 2 HTRF kit according to the manufacturer's protocol. Briefly, CHO-hGPR119 cells were plated at a cell density of 5000 cells/well/5 μl into a white small volume 384 well plate. The final concentrations of IBMX and DMSO used were 1 mM and 0.5% respectively. Cells were treated with various concentrations of the test compound for 60 min at room temperature. Cells were lysed by buffer containing Anti-cAMP antibody and d2-cAMP reagents and incubated for 1 hour at room temperature. HTRF was measured at 337 nm excitation and emission wavelengths of 665 nm and 620 nm on a microplate reader (Flurostar, BMG Labtech). Graphpad prism software was utilized for EC50 determinations.

With `COCCS(=O)(=O)c1ccc(-c2ccc3nc(OC(C)C4CCN(c5nc(C(C)C)no5)CC4)sc3n2)cc1` (centres unmarked) [Compound 1067, 3-isopropyl-5-(4-(1-((5-(4-((2-methoxyethyl)sulfonyl)phenyl)thiazolo[5,4-b]pyridin-2-yl)oxy)ethyl)piperidin-1-yl)-1,2,4-oxadiazole], for the setting “compound at 1 μM, 60 min”, the activation at 1 µM worked out at 36%.

Turning to `COCC[S+]([O-])c1ccc(-c2ccc3nc(OC(C)C4CCN(c5nc(C(C)C)no5)CC4)sc3n2)cc1` (centres unmarked) [Compound 1068, 3-isopropyl-5-(4-(1-((5-(4-((2-methoxyethyl)sulfinyl)phenyl)thiazolo[5,4-b]pyridin-2-yl)oxy)ethyl)piperidin-1-yl)-1,2,4-oxadiazole], the activation at 1 µM (compound at 1 μM, 60 min) worked out at 13%.

In the case of `CC(C)c1noc(N2CCC(C(C)Oc3nc4ccc(-c5ccc(S(C)(=O)=O)nc5)nc4s3)CC2)n1` (centres unmarked) [Compound 1069, 3-isopropyl-5-(4-(1-((5-(6-(methylsulfonyl)pyridin-3-yl)thiazolo[5,4-b]pyridin-2-yl)oxy)ethyl)piperidin-1-yl)-1,2,4-oxadiazole], for the setting “compound at 1 μM, 60 min”, the activation at 1 µM was determined as 80%.

One may read the EC50 as the concentration needed to bring the measured effect to its halfway point. In the case of `CC(C)c1noc(N2CCC([C@@H](C)Oc3nc4ccc(-c5ccncc5)nc4s3)CC2)n1` [Compound 1070, (R)-3-isopropyl-5-(4-(1-((5-(pyridin-4-yl)thiazolo[5,4-b]pyridin-2-yl)oxy)ethyl)piperidin-1-yl)-1,2,4-oxadiazole], the EC50 was 50 to 100 nM. Further, for the setting “compound at 1 μM, 60 min”, the activation at 1 µM was 83%.

On to `CNS(=O)(=O)c1ccc(-c2ccc3nc(N4CCC(c5nc(C(C)C)no5)CC4)sc3n2)cc1` [Compound 1072, 4-(2-(4-(3-isopropyl-1,2,4-oxadiazol-5-yl)piperidin-1-yl)thiazolo[5,4-b]pyridin-5-yl)-N-methylbenzenesulfonamide], for which, under “compound at 1 μM, 60 min”, the activation at 1 µM was 17%.

As to `COCCNS(=O)(=O)c1ccc(-c2ccc3nc(N4CCC(c5nc(C(C)C)no5)CC4)sc3n2)cc1` [Compound 1073, 4-(2-(4-(3-isopropyl-1,2,4-oxadiazol-5-yl)piperidin-1-yl)thiazolo[5,4-b]pyridin-5-yl)-N-(2-methoxyethyl)benzenesulphonamide], the activation at 1 µM (compound at 1 μM, 60 min) worked out at 29%.

In the case of `CC(C)c1noc(N2CCC(C(C)Oc3nc4ccc(-c5ccc(NS(C)(=O)=O)cc5)nc4s3)CC2)n1` (centres unmarked) [Compound 1074, N-(4-(2-(1-(1-(3-isopropyl-1,2,4-oxadiazol-5-yl)piperidin-4-yl)ethoxy)thiazolo[5,4-b]pyridin-5-yl)phenyl)methanesulfonamide], the activation at 1 µM (compound at 1 μM, 60 min) is 39%.

`CC(C)c1noc(N2CCC([C@H](C)Oc3nc4ccc(-c5ccncc5F)nc4s3)CC2)n1` [Compound 1076, (S)-5-(4-(1-((5-(3-fluoropyridin-4-yl)thiazolo[5,4-b]pyridin-2-yl)oxy)ethyl)piperidin-1-yl)-3-isopropyl-1,2,4-oxadiazole]: under “compound at 1 μM, 60 min”, the “Induction (% induction at 1 μM)” value stood at 35%.

For `CC(C)c1noc(C2CCN(c3nc4ccc(-c5ccncc5)nc4s3)CC2)n1` [Compound 1077, 3-isopropyl-5-(1-(5-(pyridin-4-yl)thiazolo[5,4-b]pyridin-2-yl)piperidin-4-yl)-1,2,4-oxadiazole], the activation at 1 µM (compound at 1 μM, 60 min) was determined as 12%.

Turning to `COCCS(=O)(=O)c1ccc(-c2ccc3nc(N4CCC(c5nc(C(C)C)no5)CC4)sc3n2)cc1` [Compound 1078, 3-isopropyl-5-(1-(5-(4-((2-methoxyethyl)sulfonyl)phenyl)thiazolo[5,4-b]pyridin-2-yl)piperidin-4-yl)-1,2,4-oxadiazole], the activation at 1 µM (compound at 1 μM, 60 min) came to 24%.

In the case of `CC(C)c1noc(N2CCC(C(C)Oc3nc4ccc(-c5ccc(-n6cnnn6)cc5)nc4s3)CC2)n1` (centres unmarked) [Compound 1079, 5-(4-(1-((5-(4-(1H-tetrazol-1-yl)phenyl)thiazolo[5,4-b]pyridin-2-yl)oxy)ethyl)piperidin-1-yl)-3-isopropyl-1,2,4-oxadiazole], the activation at 1 µM (compound at 1 μM, 60 min) was found to be 50%.

As to `CC(C)c1noc(C2CCN(c3nc4ccc(-c5ccc(S(C)(=O)=O)nc5)nc4s3)CC2)n1` [Compound 1080, 3-isopropyl-5-(1-(5-(6-(methylsulfonyl)pyridin-3-yl)thiazolo[5,4-b]pyridin-2-yl)piperidin-4-yl)-1,2,4-oxadiazole], the activation at 1 µM (compound at 1 μM, 60 min) came to 40%.

Take `CC(C)c1noc(N2CCC(C(C)Oc3nc4ccc(-c5ccnc(F)c5)nc4s3)CC2)n1` (centres unmarked) [Compound 1081, 5-(4-(1-((5-(2-fluoropyridin-4-yl)thiazolo[5,4-b]pyridin-2-yl)oxy)ethyl)piperidin-1-yl)-3-isopropyl-1,2,4-oxadiazole]: for the setting “compound at 1 μM, 60 min”, the activation at 1 µM turned out to be 82%.

As for `CC(C)c1noc(N2CCC(COc3nc4ccc(-c5ccncc5)nc4s3)CC2)n1` [Compound 1083, 3-isopropyl-5-(4-(((5-(pyridin-4-yl)thiazolo[5,4-b]pyridin-2-yl)oxy)methyl)piperidin-1-yl)-1,2,4-oxadiazole], the activation at 1 µM (compound at 1 μM, 60 min) is 14%.

Turning to `CC(C)c1noc(N2CCC(COc3nc4ccc(-c5ccncc5F)nc4s3)CC2)n1` [Compound 1084, 5-(4-(((5-(3-fluoropyridin-4-yl)thiazolo[5,4-b]pyridin-2-yl)oxy)methyl)piperidin-1-yl)-3-isopropyl-1,2,4-oxadiazole], the activation at 1 µM (compound at 1 μM, 60 min) worked out at 12%.

Take `CC(C)c1noc(N2CCC(COc3nc4ccc(-c5ccnc(F)c5)nc4s3)CC2)n1` [Compound 1086, 5-(4-(((5-(2-fluoropyridin-4-yl)thiazolo[5,4-b]pyridin-2-yl)oxy)methyl)piperidin-1-yl)-3-isopropyl-1,2,4-oxadiazole]: the activation at 1 µM (compound at 1 μM, 60 min) came out at 2%.

For the molecule `CCc1ccc(N2CCC(C(C)Oc3nc4ccc(-c5ccc(S(C)(=O)=O)cc5)nc4s3)CC2)nc1` (centres unmarked) [Compound 1087, 2-(1-(1-(5-ethylpyridin-2-yl)piperidine-4-yl)ethoxy)-5-(4-(methylsulfonyl)phenyl)thiazolo[5,4-b]pyridine], the activation at 1 µM (compound at 1 μM, 60 min) stood at 74%.

For `C=Cc1ccc(N2CCC(C(C)Oc3nc4ccc(-c5ccc(S(C)(=O)=O)cc5)nc4s3)CC2)nc1` (centres unmarked) [Compound 1088, 5-(4-(methylsulfonyl)phenyl)-2-(1-(1-(5-vinylpyridin-2-yl)piperidin-4-yl)ethoxy)thiazolo[5,4-b]pyridine], under “compound at 1 μM, 60 min”, the activation at 1 µM came out at 60%.

For the molecule `CCCc1cnc(N2CCC([C@@H](C)Oc3nc4ccc(-c5ccc(S(C)(=O)=O)cc5)nc4s3)CC2)nc1` [Compound 1090, (R)-5-(4-(methylsulfonyl)phenyl)-2-(1-(1-(5-propylpyrimidin-2-yl)piperidin-4-yl)ethoxy)thiazolo[5,4-b]pyridine], the activation at 1 µM (compound at 1 μM, 60 min) was determined as 54%.

`CC(C)c1noc(N2CCC([C@H](C)Oc3nc4ccc(-c5ccncc5)nc4s3)CC2)n1` [Compound 1092, (S)-3-isopropyl-5-(4-(1-((5-(pyridin-4-yl)thiazolo[5,4-b]pyridin-2-yl)oxy)ethyl)piperidin-1-yl)-1,2,4-oxadiazole]: the activation at 1 µM (compound at 1 μM, 60 min) turned out to be 9%.

Consider `CC(C)c1noc(N2CCC([C@H](C)Oc3nc4ccc(-c5ccnc(F)c5)nc4s3)CC2)n1` [Compound 1093, (S)-5-(4-(1-((5-(2-fluoropyridin-4-yl)thiazolo[5,4-b]pyridin-2-yl)oxy)ethyl)piperidin-1-yl)-3-isopropyl-1,2,4-oxadiazole], for which the EC50 is < 25 nM. Besides, the activation at 1 µM (compound at 1 μM, 60 min) is 82%.
